Assay results published in patent US12325708B2, “Adenosine 2 receptor antagonists” (Nektar Therapeutics, priority 2019, dated 2025).
≈ marks a conversion by molar mass, not a printed value.

Experiments:
[1] = Brain-to-plasma ratio (B/P) after administration; format: in vivo, Sprague-Dawley rats; conditions: Table 2, brain-to-plasma ratio at 1 h
Method in brief: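 Plasma pharmacokinetic parameters determined after oral (PO) administration; brain-to-plasma concentration ratio (B/P) used as the brain penetration measure.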

A2A receptor = molecular target: T1, A2A receptor (Homo sapiens, UniProt P29274); assay: Radioligand receptor binding assay, A2A receptor; conditions: cell membranes overexpressing A2A receptor, read-out: Potency Ki A2A
T1 construct: purchased
Method in brief: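 Membranes from cell lines overexpressing human A2A, A1 or A3 receptors were incubated 60 min at room temperature with the receptor-appropriate [3H] tracer. After filtration and washing in 50 mM Tris HCl pH 7.5, bound label was counted by scintillation. IC50 came from nonlinear regression and Ki from the Cheng-Prusoff equation.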

[2] = Plasma protein binding (PPB), human; format: in vitro ADME; conditions: read-out: Plasma protein binding (PPB) (fu)
[3] = Hepatic clearance in vitro CLint, human liver microsomes; format: in vitro ADME
[4] = Hepatic clearance in vitro CLint, dog liver microsomes; format: in vitro ADME
[5] = Permeability Caco-2 Papp and efflux ratio; format: in vitro ADME; conditions: human
[6] = Plasma pharmacokinetic parameters of Compound 1 in dogs; format: in vivo; conditions: dog
Description: (§1) Pharmacokinetic parameters were further estimated in vivo after IV or PO administration of Compound 1 in mice and dogs with the results provided in Table 4 below.

[7] = Hepatic clearance in vitro CLint, rat liver microsomes; format: in vitro ADME
mouse CT-26 cells = assay: Antitumor activity in CT26 subcutaneous tumor model in Balb/c mice; format: in vivo; conditions: day 13 vs vehicle
Protocol: Mice used were ˜ 6-8 week-old female Balb/c mice subcutaneously inoculated with 2×10^6 mouse CT-26 cells. […] The mice were divided into six treatment groups as follows: vehicle (qdx9) PO+IP, Compound 1 (10 mg/kg, qdx9)+an exemplary anti-mouse PD1 (CD279) antibody (BioXCell) (200 μg/mouse, q2dx4); Compound 1 (30 mg/kg, qdx9)+anti-PD1 antibody (200 μg/mouse, q2dx4), Compound 1 (100 mg/kg)+anti-PD1 antibody (200 μg/mouse, q2dx4), anti-PD1 antibody (200 μg/mouse, q2dx4), or preladenant (30 mg/kg, qdx9)+anti-PD1 antibody (200 μg/mouse, q2dx4). Compound 1 and preladenant were administered orally. The anti-PD1 antibody was administered IP. Body weight was measured daily. Tumor growth of the CT26 cells was monitored three times per week by measuring the tumor volume size using a caliper with the results shown in FIG. 5.

[8] = Plasma pharmacokinetic parameters of Compound 1 in mice; format: in vivo; conditions: mouse, PO 30 mg/kg
Description: as §1

Solubility = format: physicochemical
[9] = Plasma protein binding (PPB), dog; format: in vitro ADME; conditions: read-out: Plasma protein binding (PPB) (fu)
A3 receptor = molecular target: T2, A3 receptor (Homo sapiens, UniProt P0DMS8); assay: Radioligand receptor binding assay, A3 receptor; conditions: cell membranes overexpressing A3 receptor, read-out: Potency Ki A3
T2 construct: purchased
T2 sequence (P0DMS8 1-318): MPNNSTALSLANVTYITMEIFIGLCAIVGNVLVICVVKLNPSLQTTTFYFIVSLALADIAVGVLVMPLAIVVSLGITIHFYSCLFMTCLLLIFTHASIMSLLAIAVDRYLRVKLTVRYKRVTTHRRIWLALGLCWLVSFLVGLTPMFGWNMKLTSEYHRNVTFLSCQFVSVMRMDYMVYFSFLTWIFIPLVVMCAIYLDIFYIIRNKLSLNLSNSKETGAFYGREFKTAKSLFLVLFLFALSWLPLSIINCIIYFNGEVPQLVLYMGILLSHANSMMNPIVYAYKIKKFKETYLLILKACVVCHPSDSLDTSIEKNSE
Protocol: Using conventional receptor binding assay techniques, Compounds 1-24 were assayed to determine binding activity at the A2A, A1, and A3 receptors with the results shown in Table 7.
Receptor binding affinity of Compounds 1-24 was measured using radioligand binding assays using commercially obtained cell membranes prepared from cell lines overexpressing the A2A, A1, or A3 receptors. Briefly, cell membrane preparations from cells expressing the specific receptor were mixed with the appropriate [^3H]-labeled tracer for the specific receptor and the test compound or a known inhibitor of receptor-ligand binding. Following 60 min incubation at room temperature to allow receptor-ligand complex formation, the complexes were collected by filtration, washed with 50 mM Tris HCl (pH 7.5) to remove radioligand that was not receptor-bound, and the remaining radioactivity determined by liquid scintillation counting. Specific radioligand binding was calculated for each test compound concentration and IC50 values were determined by non-linear, regression analysis. Inhibition constants (Ki) were calculated using the equation of Cheng and Prusoff using the observed IC50 of the tested compound, the concentration of radioligand employed in the assay and the experimentally determined values for the Kd of the ligand.

[10] = Plasma protein binding (PPB), mouse; format: in vitro ADME; conditions: read-out: Plasma protein binding (PPB) (fu)
[11] = Plasma protein binding (PPB), rat; format: in vitro ADME; conditions: read-out: Plasma protein binding (PPB) (fu)
[12] = Hepatic clearance in vitro CLint, mouse liver microsomes; format: in vitro ADME

T1 sequence (P29274 whole entry): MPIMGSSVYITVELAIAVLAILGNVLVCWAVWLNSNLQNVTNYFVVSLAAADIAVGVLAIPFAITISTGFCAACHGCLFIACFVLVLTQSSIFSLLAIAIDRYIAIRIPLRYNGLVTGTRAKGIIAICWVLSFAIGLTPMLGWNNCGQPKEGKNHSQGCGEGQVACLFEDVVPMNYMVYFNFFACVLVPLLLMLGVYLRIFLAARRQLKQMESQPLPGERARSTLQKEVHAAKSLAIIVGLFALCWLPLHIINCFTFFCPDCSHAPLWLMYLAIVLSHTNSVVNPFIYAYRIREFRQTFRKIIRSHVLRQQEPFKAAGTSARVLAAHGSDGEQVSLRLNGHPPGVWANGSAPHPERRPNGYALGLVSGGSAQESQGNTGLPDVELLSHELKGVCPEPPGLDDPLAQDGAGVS

For `COCCOc1ccc(N2CCN(CCN(C)c3cc4nc(-c5ncco5)nn4c(N)n3)CC2)cc1` [Compound 1, N^7-(2-{4-[4-(2-methoxyethoxy)phenyl]piperazin-1-yl}ethyl)-N^7-methyl-2-(1,3-oxazol-2-yl)[1,2,4]triazolo[1,5-c]pyrimidine-5,7-diamine], the “B/P (1 h)” value [1] was 0.06^1, the Ki (A2A receptor) was 6 nM and the fraction unbound [2] was 0.39. It also gave a microsomal CLint [3] of 43 µL/min/mg, a microsomal CLint [4] of less than 1 µL/min/mg and a Papp [5] of 14.5 ×10⁻⁶ cm/s. For the same compound, the efflux ratio ([5]; read-out: Efflux Ratio (ER)) was 1.6, the F ([6]; PO 1&10 mg/kg vs IV 0.2 mg/kg) was greater than 100% and the clearance ([6]; plasma, IV 0.2 mg/kg) was 12 mL/min/kg. It also gave a half-life ([6]; plasma, IV 0.2 mg/kg) of 6 h, a Vd ([6]; plasma, IV 0.2 mg/kg, read-out: Vss) of 5.2 L/kg and an AUC(0-inf) ([6]; plasma, PO 1 mg/kg) of 2020 ng·h/mL. The AUC(0-inf) ([6]; plasma, PO 10 mg/kg) was 17900 ng·h/mL, the microsomal CLint [7] was 17 µL/min/mg and the “% TGI” value (mouse CT-26 cells; 10 mg/kg qdx9 PO + anti-PD1 antibody 200 μg/mouse q2dx4 IP) was 34%. The “% TGI” value (mouse CT-26 cells; 30 mg/kg qdx9 PO + anti-PD1 antibody 200 μg/mouse q2dx4 IP) was 41^1%, the “% TGI” value (mouse CT-26 cells; 100 mg/kg PO + anti-PD1 antibody 200 μg/mouse q2dx4 IP) was 47^2% and the AUC(0-inf) [8] was 5760 ng·h/mL. It also gave a solubility (Solubility; pH ~3) of roughly 5000 µM (≈ 2470 µg/mL), a solubility (Solubility; pH ~7) of 20 to 40 µM (≈ 9.87 to 19.7 µg/mL) and a fraction unbound [9] of 0.43. The Ki (A3 receptor) was greater than 10000 nM, the fraction unbound [10] was 0.19 and the fraction unbound [11] was 0.15. It also gave a microsomal CLint [12] of 29 µL/min/mg.

`COCCOc1cnc(N2CCN(CCN(C)c3cc4nc(-c5ncco5)nn4c(N)n3)CC2)c(F)c1` [Compound 4, N^7-(2-{4-[3-fluoro-5-(2-methoxyethoxy)pyridin-2-yl]piperazin-1-yl}ethyl)-N^7-methyl-2-(1,3-oxazol-2-yl)[1,2,4]triazolo[1,5-c]pyrimidine-5,7-diamine] gave a Kp at 1 h ([1]; Sprague-Dawley, rat) of 0.04 and a Ki (A2A receptor) of 2 nM.
